≈ marks a conversion by molar mass, not a printed value.

One experiment concerns M. Smegmatis ATCC607. The experiment can be described thus: In-vitro anti-bacterial activity against strain M. smegmatis ATCC607 (Alamar Blue growth inhibition). In kind it is cell-based. To be noted: 48 hours incubation; for IC50: Mycolicibacterium smegmatis, read-out: M. smegmatis pIC50 (converted). A digest of the protocol: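 Five-fold serial compound dilutions were inoculated with about 250 CFU/well in Mueller-Hinton broth and incubated 48 h at 37° C under 5% CO2. Growth was read by Alamar Blue fluorescence (ex 530/em 590 nm) after a further 2 h. Percent growth inhibition was expressed as pIC50.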

Another experiment relates to ECO 25922. The experiment can be described thus: Microtitre plate assay, IC90 determination, ECO 25922. Type of experiment: cell-based, E. coli. Particulars: 90% inhibitory concentration for bacterial growth, strain ECO 25922, 24 hours at 37° C.; for IC90: Escherichia coli, read-out: IC90 (μg/ml) ECO 25922. Here is the method: (§1) Stocks (0.5 ml/tube) were stored at -70° C. until use. Bacteria titrations were performed in microtiter plates to detect the TCID50, in which the TCID50 represents the dilution that gives rise to bacterial growth in 50% of inoculated cultures. In general, an inoculum level of approximately 100 TCID50 was used for susceptibility testing. […] Serial five-fold dilutions (45 μl in 180 μl) were made directly in the microtiter plates from column 2 to reach column 11. Untreated control samples with (column 1) and without (column 12) inoculum were included in each microtiter plate. Depending on the bacteria type, approximately 10 to 60 CFU per well of bacteria inoculum (100 TCID50), in a volume of 100 μl in 2.8× Mueller-Hinton broth medium, was added to the rows […]. The same volume of broth medium without inoculum was added to column 12 in row A to H. The cultures were incubated at 37° C. for 24 hours under a normal atmosphere (incubator with open air valve and continuous ventilation). At the end of incubation, one day after inoculation, the bacterial growth was quantitated fluorometrically. Therefore resazurin (0.6 mg/ml) was added in a volume of 20 μl to all wells 3 hours after inoculation, and the plates were re-incubated overnight. A change in colour from blue to pink indicated the growth of bacteria. The fluorescence was read in a computer-controlled fluorometer (Cytofluor Biosearch) at an excitation wavelength of 530 nm and an emission wavelength of 590 nm. The % growth inhibition achieved by the compounds was calculated according to standard methods. The IC90 (expressed in μg/ml) was defined as the 90% inhibitory concentration for bacterial growth.

The subject of the next experiment is EFA 29212. The experiment can be described thus: Microtitre plate assay, IC90 determination, EFA 29212. In kind it is cell-based, E. faecalis. To be noted: 90% inhibitory concentration for bacterial growth, strain EFA 29212, 24 hours at 37° C.; for IC90: Enterococcus faecalis, read-out: IC90 (μg/ml) EFA 29212. The protocol:
as §1

In another experiment the test system is LMO 49594. The experiment can be described thus: Microtitre plate assay, IC90 determination, LMO 49594. To be noted: 90% inhibitory concentration for bacterial growth, strain LMO 49594, 24 hours at 37° C.; for IC90: Listeria monocytogenes, read-out: IC90 (μg/ml) LMO 49594. In kind it is cell-based, Listeria monocytogenes. Here is the method: as §1
The next experiment has as its system SMU 33402. The experiment can be described thus: Microtitre plate assay, IC90 determination, SMU 33402. Type of experiment: cell-based, S. mutans. Particulars: 90% inhibitory concentration for bacterial growth, strain SMU 33402, 24 hours at 37° C.; for IC90: Streptococcus mutans, read-out: IC90 (μg/ml) SMU 33402. Here is the method: as §1
Another experiment concerns STA 43300. The experiment can be described thus: Microtitre plate assay, IC90 determination, STA 43300. Type of experiment: cell-based, S. aureus. Particulars: Staphylococcus aureus; 90% inhibitory concentration for bacterial growth; strain STA 43300; 24 hours at 37° C.; read-out: IC90 (μg/ml) STA 43300. Here is the method:
as §1, with “Therefore resazurin (0.6 mg/ml) was added in a volume of 20 μl to all wells 3 hours after inoculation, and the plates were re-incubated overnight. A change in colour from blue to pink indicated the growth of bacteria.” left out, “The IC90 (expressed in μg/ml) was defined as the 90% inhibitory concentration for bacterial growth.” left out

The next experiment concerns STA 29213. The experiment can be described thus: Microtitre plate assay, IC90 determination, STA 29213. In kind it is cell-based, S. aureus. Particulars: 90% inhibitory concentration for bacterial growth, strain STA 29213, 24 hours at 37° C.; for IC90: Staphylococcus aureus, read-out: IC90 (μg/ml) STA 29213. Here is the method:
as §1

The test system of experiment [1] is Mycobacterium tuberculosis (strain H37RV). The experiment can be described thus: In-vitro method for testing compounds against M. tuberculosis (resazurin growth inhibition). To be noted: 7 days incubation. Type of experiment: cell-based. In general terms: Resazurin is reduced to fluorescent resorufin, in cell work by metabolically active cells.
In another experiment the test system is BSU 43639. The experiment can be described thus: Microtitre plate assay, IC90 determination, BSU 43639. Type of experiment: cell-based, Bacillus subtilis. Particulars: 90% inhibitory concentration for bacterial growth, strain BSU 43639, 24 hours at 37° C. The protocol:
as §1

The next experiment has as its system EFA 14506. The experiment can be described thus: Microtitre plate assay, IC90 determination, EFA 14506. Type of experiment: cell-based, E. faecalis. To be noted: 90% inhibitory concentration for bacterial growth, strain EFA 14506, 24 hours at 37° C. The protocol:
as §1

The test system of another experiment is PAE 27853. The experiment can be described thus: Microtitre plate assay, IC90 determination, PAE 27853. Type of experiment: cell-based, Pseudomonas aeruginosa. Particulars: 90% inhibitory concentration for bacterial growth, strain PAE 27853, 24 hours at 37° C. Here is the method: as §1
In another experiment the test system is SPN 6305. The experiment can be described thus: Microtitre plate assay, IC90 determination, SPN 6305. Type of experiment: cell-based, S. pneumoniae. Particulars: 90% inhibitory concentration for bacterial growth, strain SPN 6305, 24 hours at 37° C. The protocol:
as §1

The test system of another experiment is SPY 8668. The experiment can be described thus: Microtitre plate assay, IC90 determination, SPY 8668. Type of experiment: cell-based, S. pyogens. To be noted: 90% inhibitory concentration for bacterial growth, strain SPY 8668, 24 hours at 37° C. Here is the method:
as §1

A further experiment relates to STA 25923. The experiment can be described thus: Microtitre plate assay, IC90 determination, STA 25923. To be noted: 90% inhibitory concentration for bacterial growth, strain STA 25923, 24 hours at 37° C.; for IC90: Staphylococcus aureus, read-out: IC90 (μg/ml) STA 25923. Type of experiment: cell-based, S. aureus. The protocol: as §1
The test system of the next experiment is STA RMETH. The experiment can be described thus: Microtitre plate assay, IC90 determination, STA RMETH. In kind it is cell-based, S. aureus. To be noted: Staphylococcus aureus; 90% inhibitory concentration for bacterial growth; strain STA RMETH; 24 hours at 37° C.; read-out: IC90 (μg/ml) STA RMETH. Here is the method:
as §1

As for `COc1nc2ccc(Br)cc2cc1C(c1ccccc1)N(CC(=O)N1CCN(C)CC1)Cc1cccc2ncccc12` (centres unmarked) [Compound 114], the IC50 with M. Smegmatis ATCC607 was 20 µM. Moreover, the IC90 in the experiment on ECO 25922 was 62.5 µg/mL (≈ 100 µM); in the experiment on EFA 29212, 12.5 µg/mL (≈ 20 µM); in the experiment with LMO 49594, 49.6 µg/mL (≈ 79.4 µM); with SMU 33402, 15.7 µg/mL (≈ 25.1 µM); in the experiment with STA 43300, 12.5 µg/mL (≈ 20 µM); in the experiment with STA 29213, 12.5 µg/mL (≈ 20 µM).
For the molecule `COc1nc2ccc(Br)cc2cc1C(c1ccccc1)N(CCN(C)C)Cc1ccccc1` (centres unmarked) [Compound 21], the “M. tuberculosis pIC50” value in [1] was found to be 5.1. In addition, the “M. smegmatis pIC50” value in the experiment with M. Smegmatis ATCC607 turned out to be 5.8. In addition, the “IC90 (μg/ml) BSU 43639” value in the experiment with BSU 43639 is 10.1 µg/mL (≈ 20 µM). In the experiment with ECO 25922, the “IC90 (μg/ml) ECO 25922” value was determined as 12.7 µg/mL (≈ 25.2 µM). Further, in the experiment with EFA 14506, the “IC90 (μg/ml) EFA 14506” value turned out to be 10.1 µg/mL (≈ 20 µM). Moreover, the “IC90 (μg/ml) EFA 29212” value in the experiment on EFA 29212 worked out at 12.7 µg/mL (≈ 25.2 µM). In addition, in the experiment on LMO 49594, the “IC90 (μg/ml) LMO 49594” value turned out to be 12.7 µg/mL (≈ 25.2 µM). In the experiment on PAE 27853, the “IC90 (μg/ml) PAE 27853” value was 12.7 µg/mL (≈ 25.2 µM). In addition, the “IC90 (μg/ml) SMU 33402” value in the experiment on SMU 33402 stood at 10.1 µg/mL (≈ 20 µM). Further, the “IC90 (μg/ml) SPN 6305” value with SPN 6305 was 12.7 µg/mL (≈ 25.2 µM). Further, in the experiment with SPY 8668, the “IC90 (μg/ml) SPY 8668” value was 10.1 µg/mL (≈ 20 µM). Further, the “IC90 (μg/ml) STA 25923” value in the experiment on STA 25923 was found to be 11.3 µg/mL (≈ 22.4 µM). The “IC90 (μg/ml) STA 29213” value in the experiment on STA 29213 came out at 10.1 µg/mL (≈ 20 µM).
Consider `CN(C)CCN(Cc1ccccc1)C(c1ccccc1)c1cc2cc(Br)ccc2nc1-c1ccccc1` (centres unmarked) [Compound 51], for which the IC50 is 7.94 µM in experiment [1] (Mycobacterium tuberculosis, 168 h, read-out: M. tuberculosis pIC50 (converted)) and 1 µM in the experiment on M. Smegmatis ATCC607. The IC90 in the experiment on ECO 25922 came out at 13.8 µg/mL (≈ 25.1 µM); in the experiment on EFA 14506 (Enterococcus faecalis, read-out: IC90 (μg/ml) EFA 14506), 11 µg/mL (≈ 20 µM); with EFA 29212, 13.8 µg/mL (≈ 25.1 µM); with LMO 49594, 13.8 µg/mL (≈ 25.1 µM); in the experiment on PAE 27853 (Pseudomonas aeruginosa, read-out: IC90 (μg/ml) PAE 27853), 11 µg/mL (≈ 20 µM); in the experiment with SMU 33402 it was 6.9 µg/mL (≈ 12.5 µM). In addition, the IC90 with SPN 6305 (Streptococcus pneumoniae, read-out: IC90 (μg/ml) SPN 6305) was determined as 2.8 µg/mL (≈ 5.09 µM); with SPY 8668 (read-out: IC90 (μg/ml) SPY 8668) it was 2.8 µg/mL (≈ 5.09 µM); with STA 25923, 12.3 µg/mL (≈ 22.3 µM); in the experiment on STA 29213, 11 µg/mL (≈ 20 µM); with STA RMETH it was 12.3 µg/mL (≈ 22.3 µM).
Consider `Cc1ccc2nc(-c3ccccc3)c(C(c3ccccc3)N(CC(=O)N3CCN(C)CC3)Cc3ccccc3)cc2c1` (centres unmarked) [Compound 72], for which the IC50 in the experiment with M. Smegmatis ATCC607 is 1.58 µM. Also, the IC90 amounted to 8.8 µg/mL (≈ 15.9 µM) in the experiment on BSU 43639 (Bacillus subtilis, read-out: IC90 (μg/ml) BSU 43639); 55.5 µg/mL (≈ 100 µM) with ECO 25922; 11.1 µg/mL (≈ 20 µM) with LMO 49594; 13.9 µg/mL (≈ 25.1 µM) with SMU 33402; 11.1 µg/mL (≈ 20 µM) in the experiment on STA 43300; 11.1 µg/mL (≈ 20 µM) in the experiment on STA 25923. Further, the IC90 in the experiment on STA 29213 was found to be 11.1 µg/mL (≈ 20 µM).

Source of the values: US7915292B2, “Antibacterial quinoline derivatives” (Janssen Pharmaceutica NV, priority 2005, dated 2011).
